Laboratory results taken from patent US20030171368A1, “Pyrimidinonesulfamoylureas`” (priority 2002, published 2003).
In brackets after ≈: the same amount, converted by molar mass.

Target: T1, integrin αvβ3 (Homo sapiens, UniProt P05106+P06756)
T1 construct: from tissue; host or cells: human placenta
Assay: Integrin αvβ3 assay: competition between vitronectin and test substance for binding to solid phase-bound integrin αvβ3
Settings: competition with human vitronectin; result in words only
Experimental: For the identification and assessment of integrin αvβ3 ligands, a test system was used which is based on competition between the natural integrin αvβ3 ligand vitronectin and the test substance for binding to solid phase-bound integrin αvβ3. […]
coat microtiter plates with 250 ng/ml of integrin αvβ3 in 0.05 M NaHCO3 pH 9.2; 0.1 ml/well; overnight/4° C. saturate with 1% milk powder/assay buffer; 0.3 ml/well; 0.5 h/RT wash 3× with 0.05% Tween 20/assay buffer test substance in 0.1% milk powder/assay buffer, 50 μl/well +0 μg/ml or 2 μg/ml of human vitronectin (Boehringer Ingelheim T007) in 0.1% milk powder/assay buffer, 50 μl/well; 1 h/RT […]
1 μg/ml of anti-human vitronectin antibody coupled to peroxidase (Kordia SAVN-APHRP) in 0.1% milk powder/assay buffer; 0.1 ml/well; 1 h/RT […]
0.1 ml/well of peroxidase substrate stop reaction with 0.1 ml/well of 2 M H2SO4 measurement of the absorption at 450 nm
Integrin αvβ3: Human placenta is solubilized with Nonidet and integrin αvβ3 is affinity-purified on a GRGDSPK matrix (elution mit EDTA). Impurities due to integrin […] and human serum albumin, and the detergent and EDTA are removed by anion exchange chromatography. […]

IC50 values (concentration of the ligand at which 50% of the ligand is displaced)	SMILES
best results	Cc1cn(C[C@H](NS(=O)(=O)N(C)C)C(=O)O)c(=O)nc1N1CCC(CNc2nc3ccccc3[nH]2)CC1.Cl.Cl [Example 2, (2S)-3-(4-{4-[(1H-Benzimidazol-2-ylamino)methyl]-1-piperidinyl}-5-methyl-2-oxo-1 (2H)-pyrimidinyl)-2-{[(dimethylamino)sulfonyl]amino}propionic acid (dihydrochloride)]
best results	Cc1cn(C[C@H](NS(=O)(=O)N(C)C)C(=O)O)c(=O)nc1N1CCC(CNc2ccccn2)CC1 [Example 9, (2S)-2-{[(Dimethylamino)sulfonyl]amino}-3-(5-methyl-2-oxo-4-{4-[(2-pyridinylamino)-methyl]-1-piperidinyl}-1 (2H)-pyrimidinyl)propionic acid]

Tested on: not listed separately
Assay: Solubility in water (10 mg in 1 ml H2O, shaken, centrifuged, HPLC against DMSO solution)
Type: physicochemical
Settings: 10 mg substance in 1 ml H2O, shaken 10 minutes, supernatant measured by HPLC
Experimental: The compounds of the general formula I according to the invention are distinguished in comparison to the substances described in WO 00/61551 by more advantageous physicochemical properties, in particular an improved solubility in water.
10 mg of the substance to be investigated were dissolved in 1 ml of DMSO, vigorously shaken for 10 minutes and then centrifuged for 10 minutes at 10000 rpm and diluted with a mixture of 5% CH3CN/H2O+0.1% TFA 1:10.
10 mg of substance were mixed with 1 ml of H2O, vigorously shaken for 10 minutes and centrifuged for 10 minutes at 10000 rpm. The supernatant was removed and likewise diluted. Both solutions were measured by HPLC (column: MACHEREY & NAGEL, Nucleosil C18 PPN, 100×2.1 mm ID, 5μ, temp: 40° C.) and the concentration of the aq. solution was determined.

Solubility (H2O) [µg/mL]	SMILES
560	CCOC(=O)N[C@@H](Cn1cc(C)c(N2CCC(CNc3nc4ccccc4[nH]3)CC2)nc1=O)C(=O)O.Cl [(2S)-3-(4-{4-[(1H-Benzimidazol-2-ylamino)methyl]-1-piperidlnyl}-5-methyl-2-oxo-1(2H)-pyrimidinyl)-2-[(ethoxycarbonyl)amino]propanoic acid (hydrochloride)]

Same assay, conditions: water, thermodynamic from solid, 10 mg substance in 1 ml H2O, shaken 10 minutes, supernatant measured by HPLC

solubility at 10 min [µg/mL]	SMILES
1000	CC(=O)N[C@@H](Cn1cc(C)c(N2CCC(CNc3nc4ccccc4[nH]3)CC2)nc1=O)C(=O)O.Cl [(2S)-2-(Acetylamino)-3-(4-{4-[(1H-benzimidazol-2-ylamino)methyl]-1-piperidinyl}-5-methyl-2-oxo-1(2H)-pyrimidinyl)propanoic acid (hydrochloride)]
< 50	Cc1cn(C[C@H](NS(C)(=O)=O)C(=O)O)c(=O)nc1N1CCC(CNc2nc3ccccc3[nH]2)CC1.Cl [(2S)-3-(4-{4-[(1H-Benzimidazol-2-ylamino)methyl]-1-piperidinyl}-5-methyl-2-oxo-1(2H)-pyrimidinyl)-2-[(methylsulfonyl)amino]propanoic acid (hydrochloride)]
< 50	CC(=O)O.Cc1cn(C[C@H](NS(=O)(=O)c2ccccc2)C(=O)O)c(=O)nc1N1CCC(CNc2nc3ccccc3[nH]2)CC1 [(2S)-3-(4-{4-[(1H-Benzimidazol-2-ylamino)methyl]-1-piperidinyl}-5-methyl-2-oxo-1(2H)-pyrimidinyl)-2-[(phenylsulfonyl)amino]propanoic acid (acetate)]
810	Cc1cn(C[C@H](NC(=O)N(C)C)C(=O)O)c(=O)nc1N1CCC(CNc2nc3ccccc3[nH]2)CC1.Cl [(2S)-3-(4-{4-[(1H-Benzimidazol-2-ylamino)methyl]-1-piperidinyl}-5-methyl-2-oxo-1(2H)-pyrimidinyl)-2-{[(dimethylamino)carbonyl]amino}propanoic acid (hydrochloride)]
860 (≈ 1730 µM)	CCNC(=O)N[C@@H](Cn1cc(C)c(N2CCC(CNc3nc4ccccc4[nH]3)CC2)nc1=O)C(=O)O [(2S)-3-(4-{4-[(1H-Benzimidazol-2-ylamino)methyl]-1-piperidinyl}-5-methyl-2-oxo-1(2H)-pyrimidinyl)-2-{[(ethylamino)carbonyl]amino}propanoic acid]
2500	Cc1cn(C[C@H](NS(=O)(=O)N(C)C)C(=O)O)c(=O)nc1N1CCC(CNc2nc3ccccc3[nH]2)CC1.Cl.Cl [Example 2, (2S)-3-(4-{4-[(1H-Benzimidazol-2-ylamino)methyl]-1-piperidinyl}-5-methyl-2-oxo-1 (2H)-pyrimidinyl)-2-{[(dimethylamino)sulfonyl]amino}propionic acid (dihydrochloride)]
